“And” between values parts separate entries of the source, which are not always exact repeats. Equal values may be shown once.
Assays:
Assay type in all cases: cell-based
320 non-olfactory GPCRs [1] = biological target: 320 non-olfactory GPCRs (Homo sapiens, UniProt Q13258); details: receptor PTGDR; replicate values, Fig_4g
320 non-olfactory GPCRs [2] = biological target: T1, 320 non-olfactory GPCRs (Homo sapiens, UniProt P13945)
T1 construct: expressed in transfected cells; host or cells: HTLA cells
T1 sequence (P13945 whole entry): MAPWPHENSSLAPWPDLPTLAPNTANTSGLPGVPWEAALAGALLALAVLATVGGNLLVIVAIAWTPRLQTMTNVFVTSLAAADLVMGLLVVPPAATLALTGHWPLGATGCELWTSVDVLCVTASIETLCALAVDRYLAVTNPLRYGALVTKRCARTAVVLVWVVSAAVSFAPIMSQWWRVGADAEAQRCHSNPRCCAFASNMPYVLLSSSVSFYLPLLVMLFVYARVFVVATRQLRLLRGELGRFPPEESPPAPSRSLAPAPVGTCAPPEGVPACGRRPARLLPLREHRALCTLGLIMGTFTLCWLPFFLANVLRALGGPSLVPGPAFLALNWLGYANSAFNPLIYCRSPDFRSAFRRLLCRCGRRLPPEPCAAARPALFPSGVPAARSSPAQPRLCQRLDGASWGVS

320 non-olfactory GPCRs [3] = biological target: T2, 320 non-olfactory GPCRs (Homo sapiens, UniProt P48146); details: receptor NPBW2; replicate values, Fig_4g
T2 construct: expressed in transfected cells; host or cells: HTLA cells
T2 sequence (P48146 whole entry): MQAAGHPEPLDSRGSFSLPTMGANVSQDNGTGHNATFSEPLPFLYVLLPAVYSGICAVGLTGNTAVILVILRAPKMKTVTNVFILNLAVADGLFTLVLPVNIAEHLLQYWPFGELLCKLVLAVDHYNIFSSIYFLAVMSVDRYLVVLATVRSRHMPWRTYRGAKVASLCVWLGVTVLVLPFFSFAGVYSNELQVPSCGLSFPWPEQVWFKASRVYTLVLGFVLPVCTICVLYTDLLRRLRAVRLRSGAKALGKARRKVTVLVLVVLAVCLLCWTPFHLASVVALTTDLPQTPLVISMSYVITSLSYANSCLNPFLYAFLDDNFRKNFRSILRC

320 non-olfactory GPCRs [4] = biological target: T3, 320 non-olfactory GPCRs (Homo sapiens, UniProt Q8TDS7); details: receptor MRGPRD; replicate values, Fig_4g
T3 construct: expressed in transfected cells; host or cells: HTLA cells
T3 sequence (Q8TDS7 whole entry): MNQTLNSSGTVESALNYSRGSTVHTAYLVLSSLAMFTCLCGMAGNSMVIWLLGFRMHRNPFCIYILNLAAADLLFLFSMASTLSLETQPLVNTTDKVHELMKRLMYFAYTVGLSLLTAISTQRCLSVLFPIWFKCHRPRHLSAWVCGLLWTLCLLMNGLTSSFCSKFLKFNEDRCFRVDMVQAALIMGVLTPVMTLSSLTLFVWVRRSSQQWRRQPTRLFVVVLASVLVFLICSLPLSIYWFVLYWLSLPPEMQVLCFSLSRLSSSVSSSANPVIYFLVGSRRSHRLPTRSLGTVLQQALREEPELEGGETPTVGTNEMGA
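Throughout, for Fold of Basal: compound tested at 1 µM final concentration.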
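Throughout, for GPCRome agonism screen response: fold over basal response of each receptor without drug.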

Chain of 320 non-olfactory GPCRs (Homo sapiens, UniProt Q13258) (Q13258 whole entry): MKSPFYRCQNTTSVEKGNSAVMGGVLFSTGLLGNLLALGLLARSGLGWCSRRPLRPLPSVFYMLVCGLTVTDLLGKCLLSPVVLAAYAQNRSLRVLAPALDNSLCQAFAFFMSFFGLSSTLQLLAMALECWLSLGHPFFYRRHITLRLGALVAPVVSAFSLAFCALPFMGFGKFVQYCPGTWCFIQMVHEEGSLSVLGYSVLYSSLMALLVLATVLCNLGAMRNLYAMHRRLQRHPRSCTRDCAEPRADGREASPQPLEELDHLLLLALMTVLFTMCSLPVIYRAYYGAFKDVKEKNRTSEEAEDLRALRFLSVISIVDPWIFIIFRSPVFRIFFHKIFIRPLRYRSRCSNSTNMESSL

CCOc1cccc2cc(C(C)NCC3(O)CCCCC3)oc12 (stereo not shown) [O4LE6]
GPCRome agonism screen response (320 non-olfactory GPCRs [1]): 1.067 and 0.797 and 0.4909 and 0.5007
Fold of Basal (320 non-olfactory GPCRs [2]): 1.471 and 1.539 and 1.208 and 0.8362
GPCRome agonism screen response (320 non-olfactory GPCRs [3]): 0.5262 and 0.8272 and 1.363 and 1.562
GPCRome agonism screen response (320 non-olfactory GPCRs [4]): 1.227 and 0.5077 and 1.775 and 0.8477
